Assay results from US12202829B2, “Heterocyclic compound” (FIMECS, Inc., priority 2018, dated 2025).
Structures can show the parent of a compound that is named as a salt.

Target: T1, human XIAP_BIR3 domain purified protein (Homo sapiens, UniProt P98170)
T1 construct: purchased R & D
Test: XIAP binding inhibitory activity, HTRF method with b-Smac ligand
Details: for inhibition at 3 µM: test compound 3 μM, first symbol of the cell, read-out: XIAP binding inhibition rate when the concentration of the test compound is 3 μM; for IC50: second symbol of the cell, read-out: XIAP binding 50% inhibitory concentration (IC50 value)
Experimental: Human XIAP binding inhibitory activity were measured by the Homogeneous Time Resolved Fluorescence (HTRF) method with using commercially available human XIAP_BIR3 domain purified protein (R & D) and as a ligand a Smac N-terminal peptide (AVPIAQK (SEQ ID NO: 1)) (hereinafter referred to as “b-Smac”; Peptide Research Laboratories, Inc.) biotinylated at the C-terminus according to a conventional method.
The HTRF method will be described in detail below. A test compound diluted with a reaction buffer was added to a 384-well white shallow bottom plate (Greiner 784076) at 1 μL/well and flash centrifuged for 30 seconds. Subsequently, human XIAP_BIR3 domain purified protein was diluted with the reaction buffer (25 mM HEPES Buffer containing 100 mM NaCl, 0.1% BSA, and 0.1% triton X-100, pH 7.5) to obtain a 90 nM sample diluent, and the resultant sample diluent was added to the above-mentioned white superficial plate at 4.5 μL/well and flash centrifuged for 30 seconds. Subsequently, b-Smac diluted to 90 nM with the reaction buffer was added to the above-mentioned white superficial plat at 4.5 μL/well and flash centrifuged for 30 seconds. A mixed solution of Anti-6 HIS-Cryptate (Eu3+Cryptate-conjugated mouse monoclonal antibody anti-6 Histidine; cisbio) and Streptavidin-XL^ent! (Highgrade XL665-conjugated streptavidin; cisbio) both diluted 100-fold with HTRF detection buffer (cisbio) at a volume ratio of 1:1 was added to the above white superficial plate at 10 μL/well. After flash centrifuging the white shallow bottom plate for 30 seconds, the white shallow bottom plate was left at room temperature for 4 hours or more in the dark. The white superficial plate after being left was subjected to fluorescence intensity measurement (excitation wavelength: 320 nm, fluorescence wavelength: 665 nm and 615 nm) by EnVision (Perkin Elmer).
The binding inhibition rate (%) was calculated based on the HTRF ratio in the presence of the test compound to the HTRF ratio in the absence of the test compound (fluorescence intensity at 665 nm/fluorescence intensity at 615 nm).

T1 sequence (P98170 252-356 limits assumed): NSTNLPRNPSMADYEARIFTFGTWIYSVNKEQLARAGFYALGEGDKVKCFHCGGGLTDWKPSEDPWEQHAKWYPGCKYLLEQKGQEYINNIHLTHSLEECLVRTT

inhibition at 3 µM	IC50	SMILES
> 75%	–	CN[C@@H](C)C(=O)N[C@H](C(=O)N1CCN(C(=O)c2c(C(=O)NCCOCCOCCNC(=O)OCC3c4ccccc4-c4ccccc43)c3ccc(OC)cc3n2C)CC1)C1CCCCC1 [Example 38, (9H-Fluoren-9-yl)methyl (2-(2-(2-(2-(4-((S)-2-cyclohexyl-2-((S)-2-(methylamino)propanamido)acetyl)piperazine-1-carbonyl)-6-methoxy-1-methyl-1H-indole-3-carboxamido)ethoxy)ethoxy)ethyl)carbamate Hydrochloride]
> 25%	–	CN[C@@H](C)C(=O)N[C@H](C(=O)N1CCN(C(=O)c2cc3cccnc3n2C)CC1)C1CCCCC1 [Example 13, (S)-N-((S)-1-cyclohexyl-2-(4-(1-methyl-1H-pyrrolo[2,3-b]pyridine-2-carbonyl)piperazin-1-yl)-2-oxoethyl)-2-(methylamino)propanamide]
–	3 to 30 µM	CN[C@@H](C)C(=O)N[C@H](C(=O)N1CCN(C(=O)c2cc3cc(F)ccc3n2CCOC)CC1)C1CCCCC1 [Example 52, (S)—N—((S)-1-Cyclohexyl-2-(4-(5-fluoro-1-(2-methoxyethyl)-1H-indole-2-carbonyl)piperazin-1-yl)-2-oxoethyl)-2-(methylamino)propanamide]
–	3 to 30 µM	CN[C@@H](C)C(=O)N[C@H](C(=O)N1CCN(C(=O)c2cc3cc(F)c(F)cc3n2CCOCCO)CC1)C1CCCCC1 [Example 45, (S)—N—((S)-1-Cyclohexyl-2-(4-(5,6-difluoro-1-(2-(2-hydroxyethoxy)ethyl)-1H-indole-2-carbonyl)piperazin-1-yl)-2-oxoethyl)-2-(methylamino)propanamide]
–	3 to 30 µM	CN[C@@H](C)C(=O)N[C@H](C(=O)N1CCN(C(=O)c2cc3cc(F)c(F)cc3n2CCOCCOCCOCCO)CC1)C1CCCCC1 [Example 48, (S)—N—((S)-1-Cyclohexyl-2-(4-(5,6-difluoro-1-(2-(2-(2-(2-hydroxyethoxy)ethoxy)ethoxy)ethyl)-1H-indole-2-carbonyl)piperazin-1-yl)-2-oxoethyl)-2-(methylamino)propanamide]
–	0.3 to 3 µM	CN[C@@H](C)C(=O)N[C@H](C(=O)N1CCN(C(=O)c2c(C(=O)NCCOCCOCCOCCOc3ccc(NC(=O)C[C@@H]4N=C(c5ccc(Cl)cc5)c5c(sc(C)c5C)-n5c(C)nnc54)cc3)c3cc(F)c(F)cc3n2C)CC1)C1CCCCC1 [Example 79, N-(2-(2-(2-(2-(4-(2-((S)-4-(4-chlorophenyl)-2,3,9-trimethyl-6H-thieno[3,2-f][1,2,4]triazolo[4,3-a][1,4]diazepin-6-yl)acetamido)phenoxy)ethoxy)ethoxy)ethoxy)ethyl)-2-(4-((S)-2-cyclohexyl-2-((S)-2-(methylamino)propanamido)acetyl)piperazine-1-carbonyl)-5,6-difluoro-1-methyl-1H-indole-3-carboxamide]
–	3 to 30 µM	CN[C@@H](C)C(=O)N[C@H](C(=O)N1CCN(C(=O)c2cc3c(OCCOCCOCCOCc4ccccc4)c(F)c(F)cc3n2C)CC1)C1CCCCC1 [Example 66, (S)—N—((S)-2-(4-(4-(2-(2-(2-(Benzyloxy)ethoxy)ethoxy)ethoxy)-5,6-difluoro-1-methyl-1H-indole-2-carbonyl)piperazin-1-yl)-1-cyclohexyl-2-oxoethyl)-2-(methylamino)propanamide]
50 to 75%	–	CN[C@@H](C)C(=O)N[C@H](C(=O)N1CCN(C(=O)c2cc3cccc(C)c3n2C)CC1)C1CCCCC1 [Example 16, (S)-N-((S)-1-cyclohexyl-2-(4-(1,7-dimethyl-1H-indole-2-carbonyl)piperazin-1-yl)-2-oxoethyl)-2-(methylamino)propanamide]

Continued, molecule first:

SMILES	inhibition at 3 µM	IC50
CN[C@@H](C)C(=O)N[C@H](C(=O)N1CCN(C(=O)c2ccn3nccc3c2C)CC1)C1CCCCC1 [Example 4, (S)-N-((S)-1-cyclohexyl-2-(4-(4-methylpyrazolo[1,5-a]pyridine-5-carbonyl)piperazin-1-yl)-2-oxoethyl)-2-(methylamino)propanamide]	50 to 75%	–
CN[C@@H](C)C(=O)N[C@H](C(=O)N1CCN(C(=O)c2cc3cc(F)c(F)cc3n2C)C[C@H]1C)C1CCCCC1 [Example 56, (S)—N—((S)-1-Cyclohexyl-2-((R)-4-(5,6-difluoro-1-methyl-1H-indole-2-carbonyl)-2-methylpiperazin-1-yl)-2-oxoethyl)-2-(methylamino)propanamide Trifluoroacetate]	–	3 to 30 µM
CN[C@@H](C)C(=O)N[C@H](C(=O)N1CCN(C(=O)c2ccc3nc(C)n(C)c3c2)CC1)C1CCCCC1 [Example 18, (S)-N-((S)-1-cyclohexyl-2-(4-(1,2-dimethyl-1H-benzo[d]imidazole-6-carbonyl)piperazin-1-yl)-2-oxoethyl)-2-(methylamino)propanamide]	> 25%	–
CN[C@@H](C)C(=O)N[C@H](C(=O)N1CCN(C(=O)c2c(C(=O)NCCOCCOCC(=O)N3CCN(c4cc(Nc5ncc(C(=O)Nc6c(C)cccc6Cl)s5)nc(C)n4)CC3)c3cc(F)ccc3n2C)CC1)C1CCCCC1 [Example 85, N-(2-chloro-6-methylphenyl)-2-((6-(4-(2-(2-(2-(2-(4-((S)-2-cyclohexyl-2-((S)-2-(methylamino)propanamido)acetyl)piperazine-1-carbonyl)-5-fluoro-1-methyl-1H-indole-3-carboxamido)ethoxy)ethoxy)acetyl)piperazin-1-yl)-2-methylpyrimidin-4-yl)amino)thiazole-5-carboxamide]	50 to 75%	–
CCCc1cc(C(=O)N2CCN(C(=O)[C@@H](NC(=O)[C@H](C)NC)C3CCCCC3)CC2)n(C)n1 [Example 10, (S)-N-((S)-1-cyclohexyl-2-(4-(1-methyl-3-propyl-1H-pyrazole-5-carbonyl)piperazin-1-yl)-2-oxoethyl)-2-(methylamino)propanamide]	> 25%	–
CN[C@@H](C)C(=O)N[C@H](C(=O)N1CCN(C(=O)c2c(/C=C/C(=O)OC)c3cc(F)ccc3n2C)CC1)C1CCCCC1 [Example 43, Methyl (E)-3-(2-(4-((S)-2-cyclohexyl-2-((S)-2-(methylamino)propanamido)acetyl)piperazine-1-carbonyl)-5-fluoro-1-methyl-1H-indol-3-yl)acrylate Hydrochloride]	> 75%	–
CN[C@@H](C)C(=O)N[C@H](C(=O)N1CCN(C(=O)c2cc3ccnn3cc2F)CC1)C1CCCCC1 [Example 6, (S)-N-((S)-1-cyclohexyl-2-(4-(6-fluoropyrazolo[1,5-a]pyridine-5-carbonyl)piperazin-1-yl)-2-oxoethyl)-2-(methylamino)propanamide]	> 25%	–
Cc1nc(Nc2ncc(C(=O)Nc3c(C)cccc3Cl)s2)cc(N2CCN(CCOCCOCCOC[C@H]3CN[C@H](C)CN3CC(=O)N3CCN(C(=O)c4cc5cc(F)c(F)cc5n4C)C[C@H]3C)CC2)n1 [Example 83, N-(2-chloro-6-methylphenyl)-2-((6-(4-(2-(2-(2-(((2R,5R)-1-(2-((R)-4-(5,6-difluoro-1-methyl-1H-indole-2-carbonyl)-2-methylpiperazin-1-yl)-2-oxoethyl)-5-methylpiperazin-2-yl)methoxy)ethoxy)ethoxy)ethyl)piperazin-1-yl)-2-methylpyrimidin-4-yl)amino)thiazole-5-carboxamide]	–	3 to 30 µM
